Test results: US6911527B1, “HIV related peptides” (The United States of America as represented by the …, priority 1999, dated 2005)

Assays:
[1] = system: binding of phagotope-specific antibodies to HIV-1; experiment: Displacement of binding of phagotope-specific antibodies to HIV-1 by phagotopes or peptides (ELISA); conditions: increasing concentrations of peptide
Protocol: FIG. 3. Phagotope-specific antibodies bind to HIV-1. a, ELISA reactivities of immunoaffinity purified antibodies with HIV-1. Antibodies were immunoaffinity purified from LTNP serum 6090 using single phagotopes as ligands and tested for ELISA reactivity against HIV-1 virions by using a standard ELISA kit (Organon). Purified antibodies were tested at 5-10 ng/ml; HIV-negative (CS) and serum 6090 (HIV-1S) were tested at 1:100 dilution. Data are expressed as mean±SEM of four independent determinations. b, The binding of phagotope-specific antibodies to HIV-1 is specifically displaced by the related phagotopes. ELISA reactivities of single immunopurified antibodies to HIV-I were tested in the presence of the indicated concentrations of p195 (▪), p197 (♦), p217 (●), p287 (▴), p335(▾). […] ELISA reactivities of single immunoaffinity purified antibodies with the related phagotopes were tested in the presence of increasing concentrations of peptides 195 (▪), 197 (▴), 217 (♦), 287 (ρ), 335 (●). d, HIV-1 immunoblotting with phagotope-specific human antibodies. Immunoffinity purified antibodies were tested at 60 ng/ml for binding to HIV-1 proteins in Western blot by a diagnostic kit (Cambridge Biotech.); 6090 LTNP serum was tested at 1:1000 dilution.
The phagotope specific antibodies, purified from serum to IgG concentrations of 5-10 ng/ml, recognized HIV-1 proteins by ELISA (FIG. 3a); this reactivity was specifically displaced by the related phagotopes, but not by wild-type or unrelated phages (FIG. 3b and data not shown).

[2] = ELISA reactivities of engineered (modified) peptide epitopes; type: binding
Protocol: The amino acid sequences of modifed peptides generated in this manner are as follows: • P195 analog: […] (SEQ ID NO: 14) • P197 analog: […] (SEQ ID NO:15) • P217 analog: […] (SEQ ID NO:16) • P287 analog: […] (SEQ ID NO: 17) • P335 analog: CSGRLYCHESWC (SEQ ID NO:18) • P54 analog: TKTLIYQGA (SEQ ID NO:19) The engineered eptiopes are then determined to be immunogenic as described in Example 4-6.

[3] = system: serum antibodies of HIV-1-infected subjects; experiment: ELISA reactivity of phagotopes with human sera (LTNP, AIDS, HIV-negative); type: binding; conditions: for antibody titers to phagotope in sera from LTNPs versus AIDS patients: p<0.05, one-sided Student's t test
Description: FIG. 1. ELISA reactivities of HIV-specific phagotopes. a, LTNP and AIDS subjects were selected as reported (Pantaleo et al., N. Engl. J Med 332:209 (1995)). HIV-specific phagotopes were identified from RPL pVIII9aa-cys (selection 1), or pVIII9aa (selection 2) by serial steps of screening and phage colony purification as described in the Methods section. Results are expressed as fold increase of the average values of the phagotopes over values of the wild-type phages. Values were considered positive when at least four-fold higher than the background signal of wild-type phage. Average values of at least four independent assays are shown as <4; 4<<10; 10.1<<20; >20. The far right column indicates the recognition frequency of positive sera by each phagotope (f). The percentages of significant phage reactivity in the HIV-positive and control groups were compared using the Fisher Exact Test; p values (p<0.001) were adjusted for multiple testing using the Bonferroni method. b, Comparison of ELISA reactivities of phagotopes with sera of LTNP (hatched bars) versus AIDS subjects (black bars). Data are expressed as mean±SEM of fold increase for each phagotope. Statistical analysis was performed according to the one-sided Student's t test; asterisks indicate p<0.05.
To validate that the bound phagotopes carry HIV-specific epitopes, positive colonies were tested by ELISA for reactivity with sera from multiple HIV-infected individuals and counter-screened with an equivalent number of sera from HIV-negative subjects. For the EJISA analysis, microtiter plates were coated with anti M13 antibody (Pharmacia, Piscataway, N.J.) at 10 μg/ml overnight at 4° C. in coating buffer. Fifty μl of cleared phage supernatant with an equal volume of blocking buffer were incubated for 1 h at 37° C. Plates were washed extensively and supplemented with human serum at 1:100 dilution followed by an overnight incubation at 4° C. After washing, wells were coated with an anti-human (Fc-specific) alkaline phosphatase-conjugated antibody. Plates were washed and developed. Results were expressed as the difference between OD405 nm and OD620 nm by an ELISA reader.

[4] = system: sera of SHIV-infected monkeys; experiment: ELISA reactivity of monkey sera with HIV-specific phagotopes; type: binding, macaques; conditions: nine SHIV-infected monkeys
Protocol: FIG. 4. ELISA reactivities of monkey sera with HIV-specific phagotopes. Sera of naive monkeys (SHIV Negative) and SHIV-infected animals were tested for binding to HIV-1 phagotopes. Results are expressed as fold increase of OD405 nm values of tested phagotope over the OD405 nm values of wild-type-phage. Cutoff values were set as detailed in the legend to FIG. 1a. All the pre-infection sera of SHIV-positive animals tested negative by ELISA (not shown). A125, 42C, E50 and AK98 are Rhesus macaques; 4138, 4150 and 79 are cynomologous macaques; these animals were infected with SHIVMD1 (Shibata et al., J. Infect. Dis. 176:362 (1997)). 17860 and 17846 are pigtail macaques infected with SHIVMD14YE (Shibata et al., J. Infect. Dis. 176:362 (1997)).
In order to test this hypothesis, sera of nine SHIV-infected monkeys and of four uninfected control animals were tested for ELISA reactivity with the pool of HIV mimotopes. As in the case of HIV-1 infected subjects (FIG. 1a), sera of SHIV-infected monkeys recognized the HIV-1 phagotopes with variable frequencies (FIG. 4).

Sequence | displacement of antibody binding to HIV-1 by peptides in solution [1] | ELISA reactivities compared with the original peptides displayed on the phagotopes [2] | also measured
CCGCLTCSV [compound 287] | Only a partial competition | – | –
CNGRLYCGP [peptide 217] | Only a partial competition | – | –
TKTLIYQGA [P54 analog] | – | similar | –
KSSGKLISL [compound 195] | effectively displaced | – | –
EGEFCCAGQLTCSVCGDPAK [P287 analog] | – | similar | –
CNGRLYCGP [p217] | – | – | recognition frequency (f) of positive sera by phagotope ([3]; 22 LTNP sera and 25 AIDS sera, serum 1:100, positive = at least four-fold over wild-type phage): 23%; antibody titers to phagotope in sera from LTNPs versus AIDS patients [3]: significantly higher in sera from LTNPs; ELISA reactivity with AIDS sera ([3]; pool of AIDS sera): completely unreactive
CSGRLYCHESWC [P335 analog] | – | similar | –
SGRLYCHESW [compound 335] | effectively displaced | – | –
TKTLIYGGA [p54] | – | – | ELISA reactivity with sera of SHIV-infected monkeys [4]: certain SHIV sera recognized
EGEFCCNGRLYCQPCGDPAK [P217 analog] | – | similar | –
EGEFCKSSGKLISLCGDPAK [P195 analog] | – | similar | –
GTKLVCFAA [compound 197] | effectively displaced | – | –
SGRLYCHESW [p335] | – | – | antibody titers to phagotope in sera from LTNPs versus AIDS patients [3]: significantly higher in sera from LTNPs
EGEFCQTKLVCFAAAGDPAK [P197 analog] | – | similar | –
